Measured values as given in ChEMBL document CHEMBL1909046, “DrugMatrix in vitro pharmacology data”.

How the values were obtained:
[1] = target: T1, Angiotensin-converting enzyme (Oryctolagus cuniculus, UniProt P12822); test: biochemical; format: tissue-based, Lung;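 further: enzymatic inhibition of angiotensin-converting enzyme measured with FAPGG as the substrate; in other assays of this panel Not Active means under 50% inhibition at 10 µM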
T1 sequence (P12822 whole entry): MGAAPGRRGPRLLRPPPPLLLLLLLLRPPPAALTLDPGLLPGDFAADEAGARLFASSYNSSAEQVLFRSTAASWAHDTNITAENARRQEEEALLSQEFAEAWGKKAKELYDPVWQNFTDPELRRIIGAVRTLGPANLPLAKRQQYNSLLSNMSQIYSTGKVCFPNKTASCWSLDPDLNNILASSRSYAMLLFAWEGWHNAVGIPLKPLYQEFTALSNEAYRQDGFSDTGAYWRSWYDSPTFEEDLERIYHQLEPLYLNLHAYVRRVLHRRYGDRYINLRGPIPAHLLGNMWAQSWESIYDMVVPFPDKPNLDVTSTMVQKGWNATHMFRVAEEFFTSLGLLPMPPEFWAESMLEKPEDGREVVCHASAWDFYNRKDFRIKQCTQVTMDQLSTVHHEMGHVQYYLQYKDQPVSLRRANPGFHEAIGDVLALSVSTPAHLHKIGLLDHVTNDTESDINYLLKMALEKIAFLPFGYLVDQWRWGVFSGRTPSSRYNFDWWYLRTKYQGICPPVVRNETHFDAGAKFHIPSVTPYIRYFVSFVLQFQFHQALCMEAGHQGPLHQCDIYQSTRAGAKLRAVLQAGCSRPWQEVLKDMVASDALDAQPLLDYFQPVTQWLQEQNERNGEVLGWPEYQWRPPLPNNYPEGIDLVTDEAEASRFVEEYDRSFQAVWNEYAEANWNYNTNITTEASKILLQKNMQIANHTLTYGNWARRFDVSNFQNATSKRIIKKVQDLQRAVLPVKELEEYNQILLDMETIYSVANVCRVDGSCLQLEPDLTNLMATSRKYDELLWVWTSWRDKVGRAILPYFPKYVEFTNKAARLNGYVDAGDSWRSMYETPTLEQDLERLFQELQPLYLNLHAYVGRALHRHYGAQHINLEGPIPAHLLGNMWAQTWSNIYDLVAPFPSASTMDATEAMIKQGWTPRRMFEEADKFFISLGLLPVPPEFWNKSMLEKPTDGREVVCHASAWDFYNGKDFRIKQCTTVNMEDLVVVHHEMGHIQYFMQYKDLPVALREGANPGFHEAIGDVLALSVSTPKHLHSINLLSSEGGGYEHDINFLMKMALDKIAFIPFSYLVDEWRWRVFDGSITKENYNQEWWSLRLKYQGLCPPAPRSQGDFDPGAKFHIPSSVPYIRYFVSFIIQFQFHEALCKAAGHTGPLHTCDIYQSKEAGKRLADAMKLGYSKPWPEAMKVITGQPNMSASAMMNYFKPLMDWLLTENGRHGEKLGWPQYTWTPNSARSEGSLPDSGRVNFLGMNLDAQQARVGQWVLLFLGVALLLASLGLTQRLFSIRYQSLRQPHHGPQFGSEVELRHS

[2] = target: Vascular endothelial growth factor receptor 1 (Homo sapiens, UniProt P17948); format: cell-based; conditions: huvec; further: in other assays of this panel Not Active means under 50% inhibition at 10 µM
Sequence of Vascular endothelial growth factor receptor 1 (P17948 whole entry): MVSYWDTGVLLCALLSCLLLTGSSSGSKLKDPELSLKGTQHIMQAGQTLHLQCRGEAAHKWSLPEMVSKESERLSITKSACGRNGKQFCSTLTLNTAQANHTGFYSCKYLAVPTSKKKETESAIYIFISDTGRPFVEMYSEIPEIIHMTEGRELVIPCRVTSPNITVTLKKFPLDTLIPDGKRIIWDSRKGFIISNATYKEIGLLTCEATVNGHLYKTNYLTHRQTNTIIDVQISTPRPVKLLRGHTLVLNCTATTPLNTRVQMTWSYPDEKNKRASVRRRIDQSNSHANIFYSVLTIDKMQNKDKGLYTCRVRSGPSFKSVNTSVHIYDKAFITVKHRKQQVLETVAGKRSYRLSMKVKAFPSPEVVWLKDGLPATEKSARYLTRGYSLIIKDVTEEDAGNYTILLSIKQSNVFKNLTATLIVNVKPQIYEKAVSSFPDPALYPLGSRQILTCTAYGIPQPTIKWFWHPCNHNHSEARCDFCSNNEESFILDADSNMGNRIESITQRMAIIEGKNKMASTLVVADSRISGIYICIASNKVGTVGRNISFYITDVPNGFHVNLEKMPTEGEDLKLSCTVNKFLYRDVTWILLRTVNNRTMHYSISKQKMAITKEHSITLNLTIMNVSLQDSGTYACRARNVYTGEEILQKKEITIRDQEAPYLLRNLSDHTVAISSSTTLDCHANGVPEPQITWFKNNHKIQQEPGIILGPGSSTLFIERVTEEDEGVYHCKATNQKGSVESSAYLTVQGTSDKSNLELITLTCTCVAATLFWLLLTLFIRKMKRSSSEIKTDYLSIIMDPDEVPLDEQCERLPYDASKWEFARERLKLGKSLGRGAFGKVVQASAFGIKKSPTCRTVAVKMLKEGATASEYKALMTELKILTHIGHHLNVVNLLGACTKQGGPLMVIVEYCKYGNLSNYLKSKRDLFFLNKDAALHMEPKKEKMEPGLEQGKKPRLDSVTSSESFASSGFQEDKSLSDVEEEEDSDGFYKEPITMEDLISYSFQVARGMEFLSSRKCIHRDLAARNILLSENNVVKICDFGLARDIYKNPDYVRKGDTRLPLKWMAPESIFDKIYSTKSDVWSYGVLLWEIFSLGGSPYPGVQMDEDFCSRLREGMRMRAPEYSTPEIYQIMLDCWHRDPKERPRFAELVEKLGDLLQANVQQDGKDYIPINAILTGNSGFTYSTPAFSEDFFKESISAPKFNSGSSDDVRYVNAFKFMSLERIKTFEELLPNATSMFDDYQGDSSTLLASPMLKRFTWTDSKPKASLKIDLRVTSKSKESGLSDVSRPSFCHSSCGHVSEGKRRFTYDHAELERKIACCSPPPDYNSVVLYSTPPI

D(4) dopamine receptor = target: T2, D(4) dopamine receptor (Homo sapiens, UniProt P21917); test: DRUGMATRIX: Dopamine D4.2 radioligand binding (ligand: [3H] Spiperone); format: cell membranes, CHO-K1, Membrane; conditions: cho-k1; Not Active = under 50% inhibition at 10 µM
T2 sequence (P21917 whole entry): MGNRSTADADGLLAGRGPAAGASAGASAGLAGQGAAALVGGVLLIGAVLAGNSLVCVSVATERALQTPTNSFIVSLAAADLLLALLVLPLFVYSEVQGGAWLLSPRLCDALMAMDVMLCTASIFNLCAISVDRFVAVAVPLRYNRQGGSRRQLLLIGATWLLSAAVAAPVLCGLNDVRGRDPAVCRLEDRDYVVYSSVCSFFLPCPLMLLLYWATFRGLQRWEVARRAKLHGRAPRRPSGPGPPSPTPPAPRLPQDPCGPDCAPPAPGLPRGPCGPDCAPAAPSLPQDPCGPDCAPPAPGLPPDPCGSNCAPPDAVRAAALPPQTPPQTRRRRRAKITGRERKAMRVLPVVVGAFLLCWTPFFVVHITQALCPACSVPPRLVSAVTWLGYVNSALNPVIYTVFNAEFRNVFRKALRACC

Cytochrome P450 1A2 = target: T3, Cytochrome P450 1A2 (Homo sapiens, UniProt P05177); conditions: bti-tn-5b1-4; further: in other assays of this panel Not Active means under 50% inhibition at 10 µM
T3 sequence (P05177 whole entry): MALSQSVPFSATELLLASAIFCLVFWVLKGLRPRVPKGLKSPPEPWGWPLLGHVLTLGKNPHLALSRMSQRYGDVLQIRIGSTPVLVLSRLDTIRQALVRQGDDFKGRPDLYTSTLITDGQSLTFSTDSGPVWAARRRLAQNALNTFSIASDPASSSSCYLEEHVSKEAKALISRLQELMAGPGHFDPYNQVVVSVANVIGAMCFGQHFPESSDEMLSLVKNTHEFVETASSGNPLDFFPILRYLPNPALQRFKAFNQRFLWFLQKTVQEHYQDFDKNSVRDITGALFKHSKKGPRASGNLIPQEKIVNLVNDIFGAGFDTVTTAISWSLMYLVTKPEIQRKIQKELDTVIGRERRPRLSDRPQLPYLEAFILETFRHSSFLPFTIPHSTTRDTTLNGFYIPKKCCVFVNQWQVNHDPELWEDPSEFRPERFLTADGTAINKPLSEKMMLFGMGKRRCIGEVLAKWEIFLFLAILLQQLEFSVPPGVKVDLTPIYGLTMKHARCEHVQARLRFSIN

[3] = DRUGMATRIX: Glutamate, Kainate radioligand binding (ligand: [3H] Kainic acid); format: cell membranes, Rattus norvegicus, Wistar, Brain, Membrane; conditions: Not Active = under 50% inhibition at 10 µM
Acetylcholinesterase = Acetylcholinesterase (Homo sapiens, UniProt P22303); test: DRUGMATRIX: Acetylcholinesterase enzyme inhibition (substrate: acetylthiocholine); format: cell-based, HEK293; conditions: hek293; Not Active = under 50% inhibition at 10 µM
Sequence of Acetylcholinesterase (P22303 whole entry): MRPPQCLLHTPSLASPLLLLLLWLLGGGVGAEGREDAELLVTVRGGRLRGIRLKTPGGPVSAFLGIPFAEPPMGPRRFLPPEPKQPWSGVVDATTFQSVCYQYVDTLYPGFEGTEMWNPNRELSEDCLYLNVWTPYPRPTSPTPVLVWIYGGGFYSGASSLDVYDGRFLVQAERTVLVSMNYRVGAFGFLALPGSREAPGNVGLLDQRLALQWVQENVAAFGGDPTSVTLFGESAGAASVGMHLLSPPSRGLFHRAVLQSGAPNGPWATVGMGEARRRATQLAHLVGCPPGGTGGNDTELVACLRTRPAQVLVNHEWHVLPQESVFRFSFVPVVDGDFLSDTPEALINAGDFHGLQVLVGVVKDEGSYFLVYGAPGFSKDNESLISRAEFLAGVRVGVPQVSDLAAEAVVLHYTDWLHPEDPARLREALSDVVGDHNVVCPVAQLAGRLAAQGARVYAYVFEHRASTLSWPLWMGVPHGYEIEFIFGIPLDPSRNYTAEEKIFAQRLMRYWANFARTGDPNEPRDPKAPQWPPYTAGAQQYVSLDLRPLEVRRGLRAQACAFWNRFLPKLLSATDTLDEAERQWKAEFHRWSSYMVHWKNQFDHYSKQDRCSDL

Cannabinoid receptor 1 = Cannabinoid receptor 1 (Homo sapiens, UniProt P21554); format: cell membranes, Chem-1, Membrane; conditions: chem-1; further: in other assays of this panel Not Active means under 50% inhibition at 10 µM
Sequence of Cannabinoid receptor 1 (P21554 whole entry): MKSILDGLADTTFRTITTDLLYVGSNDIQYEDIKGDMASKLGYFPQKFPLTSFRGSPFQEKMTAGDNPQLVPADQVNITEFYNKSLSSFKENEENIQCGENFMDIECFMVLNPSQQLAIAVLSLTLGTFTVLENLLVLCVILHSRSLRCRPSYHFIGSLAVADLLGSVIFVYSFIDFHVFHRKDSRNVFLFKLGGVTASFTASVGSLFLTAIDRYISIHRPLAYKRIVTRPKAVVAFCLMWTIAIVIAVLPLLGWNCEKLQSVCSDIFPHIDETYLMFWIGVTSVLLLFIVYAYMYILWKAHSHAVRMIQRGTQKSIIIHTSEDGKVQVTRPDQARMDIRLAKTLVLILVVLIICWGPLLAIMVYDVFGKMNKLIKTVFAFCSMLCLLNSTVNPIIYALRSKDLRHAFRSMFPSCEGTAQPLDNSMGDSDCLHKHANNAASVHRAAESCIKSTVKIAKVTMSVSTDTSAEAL

[4] = target: Protein phosphatase 3 catalytic subunit alpha (Homo sapiens, UniProt Q08209); design: species or system Escherichia coli

O=C(NCCN1CCOCC1)c1ccc(Cl)cc1 [MOCLOBEMIDE]
Not Active: IC50 [1] | IC50 [2] | IC50 (D(4) dopamine receptor) | IC50 (Cytochrome P450 1A2) | Ki (Cytochrome P450 1A2) | IC50 [3] | Ki [3] | IC50 (Acetylcholinesterase) | IC50 (Cannabinoid receptor 1) | IC50 [4]

CC12CCC(CC1)C(C)(C)O2 [EUCALYPTOL]
Not Active: IC50 [1] | IC50 [2] | IC50 (D(4) dopamine receptor) | IC50 (Cytochrome P450 1A2) | Ki (Cytochrome P450 1A2) | IC50 [3] | Ki [3] | IC50 (Acetylcholinesterase) | IC50 (Cannabinoid receptor 1) | IC50 [4]

CCN1C[C@]2(COC)[C@H](O)C[C@H](OC)[C@@]34[C@@H]5C[C@@]6(O)[C@H](OC(=O)c7ccccc7)[C@@H]5[C@@](OC(C)=O)([C@@H]([C@H](OC)[C@H]23)[C@@H]14)[C@@H](O)[C@@H]6OC [ACONITINE]
Not Active: IC50 [1] | IC50 [2] | IC50 (D(4) dopamine receptor) | IC50 (Cytochrome P450 1A2) | Ki (Cytochrome P450 1A2) | IC50 [3] | Ki [3] | IC50 (Acetylcholinesterase) | IC50 (Cannabinoid receptor 1) | IC50 [4]

OC[C@H]1OC2C3[C@@H](CO)OC(O[C@H]4[C@H](O)[C@@H](O)[C@@H](O[C@H]5[C@H](O)[C@@H](O)[C@@H](O[C@H]6[C@H](O)[C@@H](O)[C@@H](O[C@H]7[C@H](O)[C@@H](O)[C@@H](O[C@H]8[C@H](O)[C@@H](O)[C@@H](O[C@H]9[C@H](O)[C@@H](O)C(OC1[C@H](O)[C@H]2O)O[C@@H]9CO)O[C@@H]8CO)O[C@@H]7CO)O[C@@H]6CO)O[C@@H]5CO)O[C@@H]4CO)[C@H](O)[C@H]3O
Not Active: IC50 [1] | IC50 [2] | IC50 (D(4) dopamine receptor) | IC50 (Cytochrome P450 1A2) | Ki (Cytochrome P450 1A2) | IC50 [3] | Ki [3] | IC50 (Acetylcholinesterase) | IC50 (Cannabinoid receptor 1) | IC50 [4]

CN(CCOc1ccc(C[C@H](Nc2ccccc2C(=O)c2ccccc2)C(=O)O)cc1)c1ccccn1
Not Active: IC50 [1] | IC50 [2] | IC50 (D(4) dopamine receptor) | IC50 (Cytochrome P450 1A2) | Ki (Cytochrome P450 1A2) | IC50 [3] | Ki [3] | IC50 (Acetylcholinesterase) | IC50 (Cannabinoid receptor 1) | IC50 [4]

CCN1CCN(c2cc3c(cc2F)c(=O)c(C(=O)O)cn3C2CC2)CC1 [ENROFLOXACIN]
Not Active: IC50 [1] | IC50 [2] | IC50 (D(4) dopamine receptor) | IC50 (Cytochrome P450 1A2) | Ki (Cytochrome P450 1A2) | IC50 [3] | Ki [3] | IC50 (Acetylcholinesterase) | IC50 (Cannabinoid receptor 1) | IC50 [4]

NC(=O)NC(=O)Cc1ccccc1 [PHENACEMIDE]
Not Active: IC50 [1] | IC50 [2] | IC50 (D(4) dopamine receptor) | IC50 (Cytochrome P450 1A2) | Ki (Cytochrome P450 1A2) | IC50 [3] | Ki [3] | IC50 (Acetylcholinesterase) | IC50 (Cannabinoid receptor 1) | IC50 [4]

Cc1cc(C(C)(C)C)c(O)c(C)c1CC1=NCCN1 [OXYMETAZOLINE]
Not Active: IC50 [1] | IC50 [2] | IC50 (D(4) dopamine receptor) | IC50 (Cytochrome P450 1A2) | Ki (Cytochrome P450 1A2) | IC50 [3] | Ki [3] | IC50 (Acetylcholinesterase) | IC50 (Cannabinoid receptor 1) | IC50 [4]

CC(CN1c2ccccc2Sc2ccccc21)N(C)C (stereo unspecified) [PROMETHAZINE]
Not Active: IC50 [1] | IC50 [2] | IC50 (D(4) dopamine receptor) | IC50 (Cytochrome P450 1A2) | Ki (Cytochrome P450 1A2) | IC50 [3] | Ki [3] | IC50 (Acetylcholinesterase) | IC50 (Cannabinoid receptor 1) | IC50 [4]

NC(N)=Nc1nc(CSCCC(N)=NS(N)(=O)=O)cs1 [FAMOTIDINE]
Not Active: IC50 [1] | IC50 [2] | IC50 (D(4) dopamine receptor) | IC50 (Cytochrome P450 1A2) | Ki (Cytochrome P450 1A2) | IC50 [3] | Ki [3] | IC50 (Acetylcholinesterase) | IC50 (Cannabinoid receptor 1) | IC50 [4]

C[C@]12CC[C@@H](O)C[C@@H]1CC[C@@H]1[C@@H]2CC[C@]2(C)C(=O)CC[C@@H]12 [ANDROSTERONE]
Not Active: IC50 [1] | IC50 [2] | IC50 (D(4) dopamine receptor) | IC50 (Cytochrome P450 1A2) | Ki (Cytochrome P450 1A2) | IC50 [3] | Ki [3] | IC50 (Acetylcholinesterase) | IC50 (Cannabinoid receptor 1) | IC50 [4]

ClC1=C(Cl)[C@]2(Cl)[C@@H]3[C@@H]4C[C@@H]([C@H]5O[C@@H]45)[C@@H]3[C@@]1(Cl)C2(Cl)Cl [DIELDRIN]
Not Active: IC50 [1] | IC50 [2] | IC50 (D(4) dopamine receptor) | IC50 (Cytochrome P450 1A2) | Ki (Cytochrome P450 1A2) | IC50 [3] | Ki [3] | IC50 (Acetylcholinesterase) | IC50 (Cannabinoid receptor 1) | IC50 [4]

CC(=O)[C@]1(O)Cc2c(O)c3c(c(O)c2[C@@H](O[C@H]2C[C@H](N)[C@H](O)[C@H](C)O2)C1)C(=O)c1ccccc1C3=O [IDARUBICIN]
Not Active: IC50 [1] | IC50 [2] | IC50 (D(4) dopamine receptor) | IC50 (Cytochrome P450 1A2) | Ki (Cytochrome P450 1A2) | IC50 [3] | Ki [3] | IC50 (Acetylcholinesterase) | IC50 (Cannabinoid receptor 1) | IC50 [4]

COC(=O)Nc1nc2ccc(Sc3ccccc3)cc2[nH]1 [FENBENDAZOLE]
Not Active: IC50 [1] | IC50 [2] | IC50 (D(4) dopamine receptor) | IC50 (Cytochrome P450 1A2) | Ki (Cytochrome P450 1A2) | IC50 [3] | Ki [3] | IC50 (Acetylcholinesterase) | IC50 (Cannabinoid receptor 1) | IC50 [4]

Cc1ccnc2c1NC(=O)c1cccnc1N2C1CC1 [NEVIRAPINE]
Not Active: IC50 [1] | IC50 [2] | IC50 (D(4) dopamine receptor) | IC50 (Cytochrome P450 1A2) | Ki (Cytochrome P450 1A2) | IC50 [3] | Ki [3] | IC50 (Acetylcholinesterase) | IC50 (Cannabinoid receptor 1) | IC50 [4]

COPPER(II) OXIDE
Not Active: IC50 [1] | Ki [1] | IC50 [2] | Ki [2] | IC50 (D(4) dopamine receptor) | Ki (D(4) dopamine receptor) | IC50 (Cytochrome P450 1A2) | Ki (Cytochrome P450 1A2) | IC50 [3] | Ki [3] | IC50 (Acetylcholinesterase) | Ki (Acetylcholinesterase) | IC50 (Cannabinoid receptor 1) | Ki (Cannabinoid receptor 1) | IC50 [4] | Ki [4]
